Structures can show the parent of a compound that is named as a salt. Where two headings read alike, the source gives them in different places.
Tests used:
[1] = system: S. aureus ATCC 29213; test: Broth microdilution testing (CLSI); assay type: cell-based, Staphylococcus aureus; conditions: 16–24h at 37 °C, read-out: MIC S. aureus ATCC 29213
Experimental: (§1) Broth microdilution testing was performed according to CLSI (Clinical Laboratory Standards Institute) guidelines. MIC (minimal inhibitory concentration) value was defined as the last tested concentration of compound at which there is no visible growth of bacteria. […] Clinical and Laboratory Standards Institute (CLSI) guidelines.

[2] = MTS cytotoxicity assay, 2D cell culture, normal lung fibroblasts; conditions: human, MRC-5 normal lung fibroblasts, 2D culture
Experimental: (§2) MTS assay gives us information about the number of living cells, in this case, metabolically active cells, whereas the BrdU proliferation assay gives a measure of the cell population in active division phase. Both assays were performed in 2D and 3D assay formats. For the 2D cell assay format, we used classic two-dimensional in vitro assays and as a 3D assay we used a hanging drop proliferation cell assay as previously described. We explored the activity of compounds on three human lung cancer cell lines, A549, HCC827 and NCI-H358. The compound activity was also tested on human lung fibroblast cell line MRC-5. A two-dimensional in vitro viability assay was performed on the MRC-5 cell line to see if tested compounds are cytotoxic on normal cell lines in low concentrations. […] 7.1.
(§3) Test compounds were synthesized by a research group at the Department of Organic Chemistry, Faculty of Chemical Engineering and Technology, University of Zagreb. […] Compounds were diluted 1:3. We transferred 500 nL (for 2D cell culture) or 400 nL (for 3D cell culture) of the compound from a mother plate to test plate by using Mosquito (TTP labtech). DMSO percentage in test concentrations was 0.5–1.0%. Starting concentration of the test compounds and standard compound doxorubicin was 50 µM (2D cell culture) or 100 µM (3D cell culture).
(§4) Cells were grown in 96-well cell star polystyrene plates. We seeded 10,000 cells/well in wells 4 h prior to the treatment with different compounds concentrations and incubated for 72 h. A cell viability assay was performed according to the manufacturer’s instructions, using CellTiter 96 aqueous solution, MTS kit (Promega, Madison, WI, USA). After 0.5–2 h of cell incubation with MTS in 2D cell culture, the plates were read using PE EnVision absorbance at 490 nm.
(§5) Calculation of IC50 data, curves and QC analysis was performed by using Excel tools and GraphPadPrism software (La Jolla, CA, USA), v. […] QC criteria parameters (Z’, S:B, R2, HillSlope) were checked for every IC50 curve.

[3] = Solubility in water (stock solutions)
[4] = system: NCI-H358; test: BrdU proliferation assay, 2D cell culture; assay type: cell-based, human; conditions: NCI-H358, 2D, n = 2, read-out: Proliferation Assay IC50 ± SD
Experimental: as §2, §3, §4
(§6) Proliferation assay was performed using Cell Proliferation ELISA, BrdU (Sigma, St. Louis, MO, USA). Briefly, 48 h hours after compound addition, 10 µM of BrdU was added to each well and incubated for the following 24 h. After incubation, a single cell suspension was made for 3D cell culture in the new 96-well plate. Plates were centrifuged and supernatants were removed from each plate (for 2D and 3D cell culture) followed by 60 min incubation at 60 °C. The rest of the proliferation assay was performed according to the manufacturer’s instructions.
as §5

[5] = system: HCC827; test: BrdU proliferation assay, 2D cell culture; assay type: cell-based, human; conditions: HCC827, 2D, BrdU, n = 2, read-out: Proliferation Assay IC50 ± SD
Experimental: as §2, §3, §4, §6, §5

[6] = system: A549; test: BrdU proliferation assay, 2D cell culture; assay type: cell-based, human; conditions: A549, 2D, BrdU, n = 2, read-out: Proliferation Assay IC50 ± SD
Experimental: as §2, §3, §4, §6, §5

[7] = system: E. coli ATCC 25922; test: Broth microdilution testing (CLSI); assay type: cell-based, Escherichia coli; conditions: broth microdilution, 16–24h at 37 °C, read-out: MIC E. coli ATCC 25922
Experimental: as §1

[8] = system: NCI-H358; test: Cytotoxicity (viability) assay, 3D hanging drop cell culture; conditions: read-out: Cytotoxicity Assay IC50 ± SD, NCI-H358 3D
Experimental: as §2, §3
(§7) Cells were grown in 96-well Perfecta 3D hanging drop plates 5000 cell/well for 4 days until spheres were formed (and checked under the microscope). After sphere formation cells were treated with compounds followed by 72 h incubation. Cell viability assay was performed according to the manufacturer’s instructions, using CellTiter GLO 3D for 3D cell culture (Promega); cell incubation was 5 min on the shaker followed by 25 min incubation in the dark. Plates were read using PE EnVision luminescence.
as §5

[9] = system: HCC827; test: as above; conditions: read-out: Cytotoxicity Assay IC50 ± SD, HCC827 3D
Experimental: as §2, §3, §7, §5

[10] = system: A549; test: as above; conditions: read-out: Cytotoxicity Assay IC50 ± SD, A549 3D
Experimental: as §2, §3, §7, §5

[11] = system: S. cerevisiae ATCC 7752; test: Broth microdilution testing (CLSI); assay type: cell-based, Saccharomyces cerevisiae; conditions: broth microdilution, 16–24h at 37 °C, read-out: MIC S. cerevisiae ATCC 7752
Experimental: as §1

[12] = system: calf thymus DNA (ctDNA); test: Fluorimetric titrations with ctDNA; conditions: fluorescence titrations, Scatchard equation, pH 7.0, sodium cacodylate buffer I = 0.05 mol dm-3
Experimental: The UV/vis spectra were recorded on a Varian Cary 100 Bio spectrophotometer, CD spectra on JASCO J815 spectrophotometer and fluorescence spectra on a Varian Cary Eclipse spectrophotometer.
Spectrophotometric titrations were performed at pH = 7 (I = 0.05 mol dm^−3, sodium cacodylate buffer) by adding portions of polynucleotide solution into the solution of the studied compound for fluorimetric experiments and CD experiments were performed by adding portions of the compound stock solution into the solution of a polynucleotide. In fluorimetric experiments excitation wavelengths of λexc = 350, 370 and 390 nm were used to avoid the inner filter effect caused due by increasing absorbance of the polynucleotide (Figures S3 and S4). Emission was collected in the range λem = 400–600 nm (SI).
aTitration data were processed using Scatchard equation, correlation coefficients were >0.97-
0.99 for all calculated Ks

[13] = system: poly(dAdT)2; test: Thermal melting experiments; assay type: binding; conditions: r = 0.3, pH 7.0, sodium cacodylate buffer I = 0.05 mol dm^−3; error ±0.5 °C
From the text: (§8) The thermal stability of helices is usually affected by the non-covalent binding of small molecules to double-stranded nucleic acids. We determined the ΔTm value (the difference between the Tm value of free polynucleotide and a complex with a small molecule) for complexes of selected compounds with ctDNA and an alternating polynucleotide, poly(dAdT)2. […] Because of this, we determined ΔTm value with non-alternating AT-DNA, poly dA-poly dT as well.

[14] = system: poly dA-poly dT; test: Thermal melting experiments; assay type: binding; conditions: r = 0.3, pH 7.0, sodium cacodylate buffer I = 0.05 mol dm^−3; error ±0.5 °C
From the text: as §8

[15] = system: NCI-H358; test: BrdU proliferation assay, 3D hanging drop cell culture; assay type: cell-based, human; conditions: NCI-H358, 3D, n = 2, read-out: Proliferation Assay IC50 ± SD
Experimental: as §2, §3, §7, §6, §5

[16] = system: HCC827; test: as above; assay type: cell-based, human; conditions: HCC827, 3D, BrdU, n = 2, read-out: Proliferation Assay IC50 ± SD
Experimental: as §2, §3, §7, §6, §5

[17] = system: A549; test: as above; assay type: cell-based, human; conditions: A549, 3D, BrdU, n = 2, read-out: Proliferation Assay IC50 ± SD
Experimental: as §2, §3, §7, §6, §5

[18] = system: ctDNA; test: Thermal melting experiments; assay type: binding, calf; conditions: r = [compound]/[polynucleotide] = 0.3, pH 7.0, sodium cacodylate buffer I = 0.05 mol dm^−3; error ±0.5 °C
From the text: as §8

[19] = system: NCI-H358; test: MTS cytotoxicity assay, 2D cell culture; conditions: read-out: Cytotoxicity Assay IC50 ± SD, NCI-H358 2D
Experimental: as §2, §3, §4, §5

[20] = system: HCC827; test: MTS cytotoxicity assay, 2D cell culture; conditions: read-out: Cytotoxicity Assay IC50 ± SD, HCC827 2D
Experimental: as §2, §3, §4, §5

[21] = system: A549; test: MTS cytotoxicity assay, 2D cell culture; conditions: read-out: Cytotoxicity Assay IC50 ± SD, A549 2D, 72 h, MTS, n = 2
Experimental: as §2, §3, §4, §5

[22] = system: human lung fibroblast cell line MRC-5; test: MTS cytotoxicity assay, 2D cell culture, normal lung fibroblasts; conditions: read-out: Cytotoxicity Assay IC50 ± SD; MRC-5 2D; MRC-5 normal lung fibroblasts, 2D, 72 h, MTS; n = 2
Experimental: as §2, §3, §4, §5

[23] = system: poly(dAdT)2 (DNA, polymer) AT; test: CD titration; conditions: Na+ (sodium cacodylate, I = 0.05 M), pH 7.0, 25 °C, polynucleotide 3.0 × 10^-5 M
[24] = system: poly(dAdT)2 (DNA, polymer) AT; test: UV thermal melting at 260 nm; conditions: Na+ (sodium cacodylate, I = 0.05 M), pH 7.0, r = [compound]/[polynucleotide phosphate] = 0.3, error ±0.5, per base
[25] = system: poly dA-poly dT (DNA, polymer) A/T; test: UV thermal melting at 260 nm; conditions: Na+ (sodium cacodylate, I = 0.05 M), pH 7.0, r = [compound]/[polynucleotide phosphate] = 0.3, error ±0.5, per base
[26] = Staphylococcus aureus, ATCC29213, broth microdilution
[27] = Saccharomyces cerevisiae, ATCC7752

Row | Compound | MIC [1, 26] | IC50 at 72 h [2] | solubility [3] | IC50 ([4]; Homo sapiens) | IC50 ([5]; Homo sapiens) | IC50 ([6]; Homo sapiens) | MIC ([7]; Escherichia coli, ATCC25922) | IC50 ([8]; Homo sapiens, NCI-H358, 72 h) | IC50 ([9]; Homo sapiens, HCC827, 72 h) | IC50 ([10]; Homo sapiens, A549, 72 h) | MIC [11, 27] | Binding constants (logKs) with ctDNA [12] | ΔTm poly (dAdT)2 [13] | ΔTm Poly dA-poly dT [14] | IC50 ([15]; Homo sapiens) | IC50 ([16]; Homo sapiens) | IC50 ([17]; Homo sapiens) | ΔTm ctDNA [18] | IC50 ([19]; Homo sapiens, NCI-H358, 72 h) | IC50 ([20]; Homo sapiens, HCC827, 72 h) | also measured
1 | CC(C)NC(=N)c1ccc2nc(-c3ccc(-c4ccc(Cl)cc4)o3)sc2c1 [Compound 8, 2-[5-(4-Chlorophenyl)furan-2-yl]-6-N-isopropilamidinobenzothiazole hydrochloride] | 12.5 µM | 9.88 ± 2.38 µM | 3000 µM | 6.68 ± 0.15 µM | 13.5 ± 0.81 µM | 8.78 ± 3.62 µM | > 100 µM | 16 ± 9.38 µM | 20.5 ± 8.63 µM | 9.31 ± 0.78 µM | 6.25 µM | 6.3 | 3.6 °C | 4.3 °C | 11.3 ± 0.49 µM | 17.8 ± 4.24 µM | 19.9 ± 2.19 µM | 1.7 °C | 6.48 ± 0.11 µM | 6.26 ± 0.33 µM | IC50 ([21]; Homo sapiens, A549, 72 h): 6.75 ± 0.19 µM; IC50 [21]: 6.74 ± 0.19 µM
2 | N#CC(=Cc1ccc(-c2ccc(Cl)cc2)o1)c1nc2cc([N+](=O)[O-])ccc2[nH]1 [Compound 21, (E,Z)-3-[5-(4-Chlorophenyl)furan-2-yl]-2-(5(6)-nitrobenzimidazol-2-yl)acrylonitrile] | – | – | – | – | – | – | – | – | – | – | – | – | – | – | – | – | – | – | – | – | MIC ([1]; broth microdilution): >100 µM; IC50 [22]: > 50 µM; IC50 [4]: > 50 µM; IC50 [5]: > 50 µM; IC50 [6]: > 50 µM; MIC [7]: >100 µM; IC50 ([8]; NCI-H358, 3D hanging drop spheres, 72 h, n = 2): > 100 µM; IC50 ([9]; HCC827, 3D hanging drop spheres, 72 h, n = 2): > 100 µM; IC50 ([10]; A549, 3D hanging drop spheres, 72 h, n = 2): > 100 µM; MIC [11]: >100 µM; IC50 [15]: > 100 µM; IC50 [16]: > 100 µM; IC50 [17]: > 100 µM; IC50 ([19]; 72 h, MTS, n = 2): 3.58 ± 0.95 µM; IC50 ([20]; 72 h, MTS, n = 2): > 50 µM; IC50 [21]: > 50 µM
3 | CC(C)NC(=N)c1ccc2nc(-c3ccc(-c4ccc([N+](=O)[O-])cc4)o3)sc2c1 [Compound 5, 2-[5-(4-Nitrophenyl)furan-2-yl]-6-N-isopropilamidinobenzothiazole hydrochloride] | 50 µM | 21.7 ± 0.51 µM | 3000 µM | 3.56 ± 0.18 µM | 13.7 ± 3.13 µM | 4.76 ± 1.03 µM | > 100 µM | 14.8 ± 0.57 µM | 43.6 ± 6.45 µM | 26.4 ± 13.4 µM | 12.5 µM | 6.4 | 4.8 °C | 5.5 °C | 14.3 ± 0.84 µM | 14.7 ± 13.4 µM | 65.9 ± 3.66 µM | 2.5 °C | 9.97 ± 0.59 µM | 19.3 ± 1.72 µM | IC50 ([21]; Homo sapiens, A549, 72 h): 8.76 ± 1.69 µM
4 | Cl.Clc1ccc(-c2ccc(-c3nc4ccc(C5=NCCN5)cc4s3)o2)cc1 [Compound 9, 2-[5-(4-Chlorophenyl)furan-2-yl]-6-(4,5-Dihydro-1H-imidazol-2-yl)benzothiazole hydrochloride] | 25 µM | 6.65 ± 0.18 µM | 1320 µM | 5.57 ± 0.81 µM | 8.69 ± 2.79 µM | 9.97 ± 5.37 µM | > 100 µM | 15.49 ± 0.07 µM | 20 ± 7.92 µM | 16.8 ± 2.61 µM | 3.13 µM | 6.1 | 4.6 °C | 15.2 °C | 6.39 ± 3.29 µM | 20.3 ± 13.9 µM | 17 ± 3.53 µM | 1.8 °C | 4.48 ± 0.3 µM | 5.9 ± 0.58 µM | binding [23]: yes; ΔTm [24]: 4.6 °C; ΔTm [25]: 15.2 °C; IC50 ([21]; Homo sapiens, A549, 72 h): 4.39 ± 0.79 µM; melting point: 293 to 297 °C

Reference: publication PMC8401404 (Molecules, 2021)
